In series [1] the target is T1, bradykinin receptors in Guinea Pig Ileum (Cavia porcellus, UniProt O70526).
T1 construct: describes the Guinea Pig Ileum assay used to analyze the present compounds; from tissue; host or cells: isolated guinea pig ileum
T1 sequence (O70526 1-372): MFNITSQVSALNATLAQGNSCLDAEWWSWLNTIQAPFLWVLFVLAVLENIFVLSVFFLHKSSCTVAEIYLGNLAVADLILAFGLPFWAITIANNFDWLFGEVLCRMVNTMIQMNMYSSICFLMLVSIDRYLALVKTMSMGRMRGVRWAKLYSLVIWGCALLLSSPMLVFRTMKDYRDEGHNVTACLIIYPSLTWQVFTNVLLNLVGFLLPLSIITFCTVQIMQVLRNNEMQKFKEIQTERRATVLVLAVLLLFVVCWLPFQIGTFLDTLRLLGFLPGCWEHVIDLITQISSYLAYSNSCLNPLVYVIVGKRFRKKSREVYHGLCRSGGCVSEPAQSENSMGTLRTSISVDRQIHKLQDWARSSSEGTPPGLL
As to the kind of experiment: Guinea Pig Ileum functional assay. It counts as cell-based. An excerpt:
5. Guinea Pig Ileum functional assay
Trautshold, Handbook of Expt. Pharmacol. Vol 25, Springer Verlag pp 53-55 (1970) describes the Guinea Pig Ileum assay used to analyze the present compounds. The Trautshold method was used without changes to the parameters. U.S. Pat. No. 4,693,993, at Column 14, line 10 gives a general description of data analysis for this assay.
In this table, I=inhibitor, and numbers in parenthesis are pA2. Agonist activity are given as percent BK activity.

Series [2] has as its target T2, bradykinin receptors in Rat Uterus (Rattus norvegicus, UniProt P25023).
T2 construct: describes the Rat Uterus assay used to analyze the present compounds; from tissue; host or cells: isolated rat uterus
T2 sequence (P25023 1-396): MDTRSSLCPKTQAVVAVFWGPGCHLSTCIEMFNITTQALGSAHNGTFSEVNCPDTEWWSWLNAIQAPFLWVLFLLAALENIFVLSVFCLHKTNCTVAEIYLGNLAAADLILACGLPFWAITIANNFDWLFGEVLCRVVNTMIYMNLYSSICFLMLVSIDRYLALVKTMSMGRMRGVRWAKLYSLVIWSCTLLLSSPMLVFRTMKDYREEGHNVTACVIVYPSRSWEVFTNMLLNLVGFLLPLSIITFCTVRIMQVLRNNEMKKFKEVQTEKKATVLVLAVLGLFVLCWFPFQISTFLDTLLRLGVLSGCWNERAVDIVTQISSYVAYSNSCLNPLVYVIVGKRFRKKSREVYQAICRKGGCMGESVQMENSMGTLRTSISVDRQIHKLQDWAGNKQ
Description: Rat Uterus functional assay. Type of series: cell-based. The source says:
4. Rat Uterus functional assay Trautshold, Handbook of Expt. Pharmacol. […] The Trautshold method was used without changes to the parameters. U.S. Pat. No. 4,693,993, at Column 14, line 10 gives a general description of data analysis for this assay. In this table, I=inhibitor, and numbers in parenthesis are pA2. Agonist activity are given as percent BK activity.

The subject of series [3] is hypotensive action of BK. The settings on record: rats, cited from earlier work.
Series [4] relates to BK action. The settings on record: rabbits; subcutaneous injection; cited from earlier work.
The conditions of series [5]: cited from earlier work.
Setting [6] is: number in parenthesis is pA2, read-out: Ileum, pA2 (I=inhibitor) (converted).

Like-named read-outs stand apart in the source and are kept apart here. Where a SMILES comes first, the peptide text is derived from it. Where no end group is shown, it is not given here. [ ]: non-standard residue; d: D form. dPhe(F5) = N[C@H](Cc1c(F)c(F)c(F)c(F)c1F)C(=O)O; Igl = N[C@H](C(=O)O)C1Cc2ccccc2C1; Hyp = O=C(O)[C@@H]1C[C@@H](O)CN1; 2Thi = N[C@@H](Cc1cccs1)C(=O)O Some results are limits rather than exact numbers.

Turning to `N=C(N)NCCC[C@@H](N)C(=O)N[C@@H](CCCNC(=N)N)C(=O)N1CCC[C@H]1C(=O)N1C[C@H](O)C[C@H]1C(=O)NCC(=O)N[C@@H](Cc1cccs1)C(=O)N[C@@H](CO)C(=O)N1Cc2ccccc2C[C@@H]1C(=O)N[C@@H](Cc1c(F)c(F)c(F)c(F)c1F)C(=O)N[C@@H](CCCNC(=N)N)C(=O)O` [Compound B10168, DArg-Arg-Pro-Hyp-Gly-Thi-Ser-DTic-f5f-Arg], the Kb in series [1] (setting [6]) is 3160 nM. The “Uterus, agonist activity as percent BK activity” value in series [2] was determined as 4%.
In the case of `CC(C)C[C@H](NC(=O)[C@@H](Cc1c(F)c(F)c(F)c(F)c1F)NC(=O)[C@H](CO)NC(=O)[C@H](Cc1cccs1)NC(=O)CNC(=O)[C@@H]1C[C@@H](O)CN1C(=O)[C@@H]1CCCN1C(=O)[C@H](CCCNC(=N)N)NC(=O)[C@H](N)CCCNC(=N)N)C(=O)N[C@@H](CCCNC(=N)N)C(=O)O` [Compound B10172, DArg-Arg-Pro-Hyp-Gly-Thi-Ser-Df5f-Leu-Arg] (H-[dR]RP[Hyp]G[2Thi]S[dPhe(F5)]LR-OH; N-terminus and C-terminus assumed), the Kb is 50.1 nM in series [1] (setting [6]) and 5.01 nM in series [2].
As to `CC(C)C[C@H](NC(=O)[C@@H](Cc1c(F)c(F)c(F)c(F)c1F)NC(=O)[C@H](CO)NC(=O)[C@@H](NC(=O)CNC(=O)[C@@H]1C[C@@H](O)CN1C(=O)[C@@H]1CCCN1C(=O)[C@H](CCCNC(=N)N)NC(=O)[C@H](N)CCCNC(=N)N)C1Cc2ccccc2C1)C(=O)N[C@@H](CCCNC(=N)N)C(=O)O` [Compound B10174, DArg-Arg-Pro-Hyp-Gly-Igl-Ser-Df5f-Leu-Arg] (H-[dR]RP[Hyp]G[Igl]S[dPhe(F5)]LR-OH; N-terminus and C-terminus assumed), the Kb in series [1] (setting [6]) was 6.31 nM; in series [2], 7.94 nM.
Consider `N=C(N)NCCC[C@@H](N)C(=O)N[C@@H](CCCNC(=N)N)C(=O)N1CCC[C@H]1C(=O)N1C[C@H](O)C[C@H]1C(=O)NCC(=O)N[C@H](C(=O)N[C@@H](CO)C(=O)N[C@@H](C(=O)N[C@@H](Cc1c(F)c(F)c(F)c(F)c1F)C(=O)N[C@@H](CCCNC(=N)N)C(=O)O)C1Cc2ccccc2C1)C1Cc2ccccc2C1` [Compound B10178, DArg-Arg-Pro-Hyp-Gly-Igl-Ser-DIgl-f5f-Arg], for which the Kb in series [1] (setting [6]) is 398 nM; in series [2], 31600 nM.
As for `N=C(N)NCCC[C@@H](N)C(=O)N[C@@H](CCCNC(=N)N)C(=O)N1CCC[C@H]1C(=O)N1C[C@H](O)C[C@H]1C(=O)NCC(=O)N[C@H](C(=O)N[C@@H](CO)C(=O)N[C@H](Cc1c(F)c(F)c(F)c(F)c1F)C(=O)N[C@H](C(=O)N[C@@H](CCCNC(=N)N)C(=O)O)C1CCCCC1)C1Cc2ccccc2C1` [Compound B10180, DArg-Arg-Pro-Hyp-Gly-Igl-Ser-Df5f-Chg-Arg], the Kb in series [1] (setting [6]) is 7.94 nM; in series [2] it was 6.31 nM.
With `N=C(N)NCCC[C@@H](N)C(=O)N[C@@H](CCCNC(=N)N)C(=O)N1CCC[C@H]1C(=O)N1C[C@H](O)C[C@H]1C(=O)NCC(=O)N[C@@H](Cc1cccs1)C(=O)N[C@@H](CO)C(=O)N[C@H](Cc1c(F)c(F)c(F)c(F)c1F)C(=O)N(CC(=O)N[C@@H](CCCNC(=N)N)C(=O)O)C1CCCCCC1` [Compound B10204, DArg-Arg-Pro-Hyp-Gly-Thi-Ser-Df5f-Nc7G-Arg], the Kb in series [1] (setting [6]) was 12.6 nM; in series [2], 631 nM.
For `N=C(N)NCCC[C@@H](N)C(=O)N[C@@H](CCCNC(=N)N)C(=O)N1CCC[C@H]1C(=O)N1C[C@H](O)C[C@H]1C(=O)NCC(=O)N[C@H](C(=O)N[C@@H](CO)C(=O)N[C@H](Cc1c(F)c(F)c(F)c(F)c1F)C(=O)N(CC(=O)N[C@@H](CCCNC(=N)N)C(=O)O)C1CCCCCC1)C1Cc2ccccc2C1` [Compound B10206, DArg-Arg-Pro-Hyp-Gly-Igl-Ser-Df5f-Nc7G-Arg], in that order: 15.8 nM and 1.26 nM.
In the case of `N=C(N)NCCC[C@@H](N)C(=O)N[C@@H](CCCNC(=N)N)C(=O)N1CCC[C@H]1C(=O)N1C[C@H](O)C[C@H]1C(=O)NCC(=O)N[C@@H](Cc1cccs1)C(=O)N[C@@H](CO)C(=O)N[C@H](Cc1c(F)c(F)c(F)c(F)c1F)C(=O)N(CC(=O)N[C@@H](CCCNC(=N)N)C(=O)O)C1CCCCC1` [Compound B10208, DArg-Arg-Pro-Hyp-Gly-Thi-Ser-Df5f-NchG-Arg], the Kb in series [1] (Ileum, pA2 (I=inhibitor), number in parenthesis is pA2) is 2 nM. Also, the “Uterus, agonist activity as percent BK activity” value in series [2] (rat uterus, agonist activity) is recorded as 14.0%.
Regarding `N=C(N)NCCC[C@@H](N)C(=O)N[C@@H](CCCNC(=N)N)C(=O)N1CCC[C@H]1C(=O)N[C@H](C(=O)NCC(=O)N[C@H](C(=O)N[C@@H](CO)C(=O)N[C@H](Cc1c(F)c(F)c(F)c(F)c1F)C(=O)N1[C@H](C(=O)N[C@@H](CCCNC(=N)N)C(=O)O)C[C@@H]2CCCC[C@@H]21)C1Cc2ccccc2C1)C1Cc2ccccc2C1` [Compound B10214, DArg-Arg-Pro-Igl-Gly-Igl-Ser-Df5f-Oic-Arg], the Kb in series [1] (setting [6]) is 7.94 nM; in series [2], 6.31 nM.
The corresponding values for `N=C(N)NCCC[C@@H](N)C(=O)N[C@@H](CCCNC(=N)N)C(=O)N1CCC[C@H]1C(=O)N[C@@H](C(=O)NCC(=O)N[C@H](C(=O)N[C@@H](CO)C(=O)N[C@H](Cc1c(F)c(F)c(F)c(F)c1F)C(=O)N1[C@H](C(=O)N[C@@H](CCCNC(=N)N)C(=O)O)C[C@@H]2CCCC[C@@H]21)C1Cc2ccccc2C1)C1Cc2ccccc2C1` [Compound B10216, DArg-Arg-Pro-DIgl-Gly-Igl-Ser-Df5f-Oic-Arg] are 158 nM and 39.8 nM.
In the case of `N=C(N)NCCC[C@H](NC(=O)[C@H](Cc1c(F)c(F)c(F)c(F)c1F)NC(=O)[C@@H](Cc1c(F)c(F)c(F)c(F)c1F)NC(=O)[C@H](CO)NC(=O)[C@@H](NC(=O)CNC(=O)[C@@H]1C[C@@H](O)CN1C(=O)[C@@H]1CCCN1C(=O)[C@H](CCCNC(=N)N)NC(=O)[C@@H](N)CCCNC(=N)N)C1Cc2ccccc2C1)C(=O)O` [Compound B10230, Arg-Arg-Pro-Hyp-Gly-Igl-Ser-Df5f-f5f-Arg], the Kb in series [1] (setting [6]) was 20 nM; in series [2], 1580 nM.
For `N=C(N)NCCC[C@@H](N)C(=O)N[C@@H](CCCNC(=N)N)C(=O)N1CCC[C@H]1C(=O)N1C[C@H](O)C[C@H]1C(=O)NCC(=O)N[C@H](C(=O)N[C@@H](CO)C(=O)N[C@H](Cc1c(F)c(F)c(F)c(F)c1F)C(=O)N[C@@H](Cc1c(F)c(F)c(F)c(F)c1F)C(=O)N[C@@H](CCCNC(=N)N)C(=O)O)C1Cc2ccccc2C1` [Compound B10232, DArg-Arg-Pro-Hyp-Gly-Igl-Ser-Df5f-f5f-Arg], the results for the Kb in series [1] (setting [6]) and in series [2] were 20 nM and 7.94 nM, respectively.
For `N=C(N)NCCC[C@H](NC(=O)[C@H](Cc1c(F)c(F)c(F)c(F)c1F)NC(=O)[C@@H](Cc1c(F)c(F)c(F)c(F)c1F)NC(=O)[C@H](CO)NC(=O)[C@@H](NC(=O)CNC(=O)[C@@H]1C[C@@H](O)CN1C(=O)[C@@H]1CCCN1C(=O)[C@H](CCCNC(=N)N)NC(=O)[C@H](CCCNC(=N)N)NC(=O)CCC(=O)OCCOC(=O)CCC(=O)N[C@@H](CCCNC(=N)N)C(=O)N[C@@H](CCCNC(=N)N)C(=O)N1CCC[C@H]1C(=O)N1C[C@H](O)C[C@H]1C(=O)NCC(=O)N[C@H](C(=O)N[C@@H](CO)C(=O)N[C@H](Cc1c(F)c(F)c(F)c(F)c1F)C(=O)N[C@@H](Cc1c(F)c(F)c(F)c(F)c1F)C(=O)N[C@@H](CCCNC(=N)N)C(=O)O)C1Cc2ccccc2C1)C1Cc2ccccc2C1)C(=O)O` [Compound B10236, EGS-(Arg-Arg-Pro-Hyp-Gly-Igl-Ser-Df5f-f5f-Arg)2], the Kb in series [1] (setting [6]) is 39.8 nM; in series [2] (rat uterus, number in parenthesis is pA2, read-out: Uterus, pA2 (I=inhibitor) (converted)), 20 nM.
On to “DArg-Arg-Pro-Hyp-Gly-Igl-Ser-DIgl-Oic-Arg [Compound B9430]”, for which, in series [3] (intragastric administration), the bioavailability entry was “low”. The “activity following intragastric administration” value in series [3] (intragastric) was “active”. Besides, the “duration of block of the hypotensive action of BK” value in series [3] (single intravenous injection) is “more than four”. For the same compound, the results for the “duration of block of BK action” value in series [3] (subcutaneous injection) and in series [4] were 48 h and “more than 24 hrs”, respectively.
On to RPPGFSPFR [BK], for which, in series [5] (caused by CPN), the plasma half-life was not above 15 s. For the same compound, the “cleavage by ACE on a single passage through the pulmonary circulation” value in series [5] (single passage, pulmonary circulation) is “more than 99%”.

Source of the values: patent publication US5935932A, “Bradykinin antagonists containing pentafluorophenylalanine” (University Technology Corporation, priority 1998, dated 1999).
